The test system of one series is NCI-N87. Briefly: In vitro cytotoxicity assay (CellTiter-Glo), NCI-N87. Format: cell-based, Human. The conditions noted are these: Homo sapiens, NCI-N87, 144 h, read-out: Cytotoxicity IC50. In a few lines: (§1)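 Plate 2.0×10^3 cells per well in RPMI-1640 plus 10% heat-inactivated FBS. After 24 hours, add test compound as a ten-point serial dilution. Incubate 6 days at 37° C, 5% CO2, then quantify viability with CellTiter-Glo.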

Another series has as its system BXPC3. Briefly: In vitro cytotoxicity assay (CellTiter-Glo), BXPC3. The class given is cell-based. The settings on record: Homo sapiens, BXPC-3, 144 h, read-out: Cytotoxicity IC50. The method, then:
(§2) Lyophilized compounds were dissolved in 100% dry DMSO, aliquots frozen and stored at −80° C. […] Shimadzu 3.0 mm×30 mm XR ODS 2.2 μm column was run at 50° C., 1.5 mL/min. Solvent A: 0.1% Formic acid in water, Solvent B: 0.08% Formic acid in methanol-Gradient: 5%-100% B in 3.0 min, 100% solvent B for 0.3 min.
(§3) Cells were plated in 96-well white flat-bottomed plates (Corning) at 2.0×10^3 cells per well in 100 μL culture medium. After incubation for 24 hours, test compounds were added at a range of concentrations as ten point serial dilution as duplicates or triplicates. Following further incubation for 6 days 37° C., 5% CO2, cell viability was assessed with the use of a CellTiter-Glo Luminescent Cell Viability Assay (Promega). Luminescence was measured using the GloMax instrument (Promega). […] For a subset of payloads, each treatment was independently repeated two to eight times, and IC50 values were averaged. […] Standard deviation (stdev) is shown as (N/A) for treatment performed once.

In the next series the test system is SKOV3. Nature of the series: In vitro cytotoxicity assay (CellTiter-Glo), SKOV3. The class given is cell-based. The settings on record: Homo sapiens, SK-OV-3, 144 h, read-out: Cytotoxicity IC50. The method, then: as §2, §3
The subject of the next series is MCF7. Nature of the series: In vitro cytotoxicity assay (CellTiter-Glo), MCF7. The class given is cell-based, Human. The settings on record: Homo sapiens, MCF7, 144 h, read-out: Cytotoxicity IC50. In a few lines: as §1
The nature of another series: physchem. The conditions noted are these: 25 °C, pH 7.4, aqueous buffer, kinetic from dmso stock.
In the next series the test system is FaDu. Nature of the series: In vitro cytotoxicity assay (CellTiter-Glo), FaDu. Format: cell-based, Human. The conditions noted are these: Homo sapiens, FaDu, 144 h, read-out: Cytotoxicity IC50.
A further series concerns SKBR3. Briefly: In vitro cytotoxicity assay (CellTiter-Glo), SKBR3. Format: cell-based, Human. The settings on record: Homo sapiens, SK-BR-3, 144 h, read-out: Cytotoxicity IC50.
Another series has as its system NCI-H292. Nature of the series: In vitro cytotoxicity assay (CellTiter-Glo), NCI-H292. The class given is cell-based, Human. The conditions noted are these: Homo sapiens, NCI-H292, 144 h, read-out: Cytotoxicity IC50. In a few lines:
as §1

The next series concerns HT29. Nature of the series: In vitro cytotoxicity assay (CellTiter-Glo), HT29. The class given is cell-based, Human. The conditions noted are these: Homo sapiens, HT-29, 144 h, read-out: Cytotoxicity IC50. In a few lines:
as §1

In brackets after ≈: the same amount, converted by molar mass.

`CC[C@@]1(O)C(=O)OCc2c1cc1n(c2=O)Cc2c-1nc1cc(F)c(C)c3c1c2[C@@H](NC(=O)NC(CO)(CO)CO)CC3` [Compound 48]: the IC50 came to 43 nM with NCI-N87; 20.3 nM in the series on BXPC3; 77.8 nM with SKOV3; 11.8 nM with MCF7; 2.8 nM with FaDu; 12.6 nM with SKBR3. Moreover, the values for the IC50 in the series with NCI-H292 and in the series on HT29 were 27.1 nM and 63.6 nM, respectively. In the series “physchem”, this compound showed a solubility at 30 min of 28 µM (≈ 16.3 µg/mL).

Values taken from patent US20250101032A1, “EXATECAN DERIVATIVES AND ANTIBODY-DRUG CONJUGATES THEREOF” (priority 2021, published 2025).
